How the values were obtained:
Experiment in all cases: Inhibition zone test of compositions on Mueller Hinton lawn
Assay type in all cases: cell-based
L. monocytogenes = settings: MPK2 200 AU/mL, 24 hours
Experimental: (§1) Different compositions comprising the MicroPacin K2 polypeptide were prepared in different vehicles: 10% w/v methanol, 10% w/v glycerol, 0.5% w/v polyethylene glycol, and water. In the case of the MicroPacin K2 polypeptide, it was used at a concentration of 200 AU/mL in each composition.
(§2) A 5 μL aliquot of each of the prepared compositions was taken and added to a plate with Mueller Hinton medium containing the sensitivity indicator bacteria, previously seeded in the form of a lawn. The plates were then incubated for 24 hours, and the antibacterial activity of the compositions was observed according to the appearance and size of the inhibition zone. This test, in turn, was performed under the same conditions with the commercial bacteriocin Nisin as a comparator agent, which is considered a gold standard bacteriocin, for being approved by the FDA (Food and Drug Administration).
(§3) In this example, the antibacterial effect of compositions comprising the polypeptide MicroPacin K2 and an additional antibacterial agent, including nisin (5,000 AU/mL), ampicillin (0.01 μg/mL), and tetracycline (0.05 μg/mL), is evaluated. The assay was performed using distilled water as the vehicle for the composition. The final concentration of MicroPacin K2 in the compositions evaluated was 200 AU/mL.

S. aureus = settings: MPK2 200 AU/mL, 24 hours
Experimental: as §1, §2, §3

E. coli O157:H7 = settings: for Zone of growth inhibition: MPK2 200 AU/mL, 24 hours
Experimental: as §1, §2, §3

E. coli DH5α = settings: MPK2 200 AU/mL, 24 hours
Experimental: as §1, §2, §3

S. sonnei = settings: for Zone of growth inhibition: S. sonnei, MPK2 200 AU/mL, 24 hours
Experimental: as §1, §2, §3

B. cereus = settings: MPK2 200 AU/mL, 24 hours
Experimental: as §1, §2, §3

C. freundii = settings: MPK2 200 AU/mL, 24 hours
Experimental: as §1, §2, §3

S. saprophyticus = settings: MPK2 200 AU/mL, 24 hours
Experimental: as §1, §2, §3

Substance: Nisin [reference compound]
- Zone of growth inhibition (L. monocytogenes; vehicle Glycerol 10%): 9.0 mm
- Zone of growth inhibition (L. monocytogenes; vehicle H2O): 9.0 mm
- Zone of growth inhibition (L. monocytogenes; vehicle Methanol 10%): 9.0 mm
- Zone of growth inhibition (L. monocytogenes; vehicle PEG 0.5%): 9.0 mm
- Zone of growth inhibition (S. aureus; vehicle Glycerol 10%): 9.0 mm
- Zone of growth inhibition (S. aureus; vehicle H2O): 9.0 mm
- Zone of growth inhibition (S. aureus; vehicle Methanol 10%): 8.0 mm
- Zone of growth inhibition (S. aureus; vehicle PEG 0.5%): 8.0 mm
- Inhibition of growth (inhibition halo) (E. coli O157:H7; compositions): not able to inhibit their growth
- Zone of growth inhibition (E. coli O157:H7; vehicle Glycerol 10%): 0 mm
- Zone of growth inhibition (E. coli O157:H7; vehicle H2O): 0 mm
- Zone of growth inhibition (E. coli O157:H7; vehicle Methanol 10%): 0 mm
- Zone of growth inhibition (E. coli O157:H7; vehicle PEG 0.5%): 0 mm
- Zone of growth inhibition (E. coli DH5α; vehicle Glycerol 10%): 8.0 mm
- Zone of growth inhibition (E. coli DH5α; vehicle H2O): 8.0 mm
- Zone of growth inhibition (E. coli DH5α; vehicle Methanol 10%): 8.0 mm
- Zone of growth inhibition (E. coli DH5α; vehicle PEG 0.5%): 8.0 mm
- Zone of growth inhibition (S. sonnei; vehicle Glycerol 10%): 0 mm
- Zone of growth inhibition (S. sonnei; vehicle H2O): 0 mm
- Zone of growth inhibition (S. sonnei; vehicle Methanol 10%): 0 mm
- Zone of growth inhibition (S. sonnei; vehicle PEG 0.5%): 0 mm
- Inhibition of growth (inhibition halo) (S. sonnei; Shigella sonnei, compositions): not able to inhibit their growth
- Zone of growth inhibition (B. cereus; vehicle Glycerol 10%): 9.0 mm
- Zone of growth inhibition (B. cereus; vehicle H2O): 8.0 mm
- Zone of growth inhibition (B. cereus; vehicle Methanol 10%): 8.0 mm
- Zone of growth inhibition (B. cereus; vehicle PEG 0.5%): 9.0 mm
- Zone of growth inhibition (C. freundii; vehicle Glycerol 10%): 8.0 mm
- Zone of growth inhibition (C. freundii; vehicle H2O): 8.0 mm
- Zone of growth inhibition (C. freundii; vehicle Methanol 10%): 8.0 mm
- Zone of growth inhibition (C. freundii; vehicle PEG 0.5%): 7.0 mm
- Zone of growth inhibition (S. saprophyticus; vehicle Glycerol 10%): 10.0 mm
- Zone of growth inhibition (S. saprophyticus; vehicle H2O): 10.0 mm
- Zone of growth inhibition (S. saprophyticus; vehicle Methanol 10%): 10.0 mm
- Zone of growth inhibition (S. saprophyticus; vehicle PEG 0.5%): 9.0 mm

From patent US20260070951A1, “MICROPAKINE K2 ANTIMICROBIAL POLYPEPTIDE, COMPOSITION COMPRISING IT AND USE FOR TREATING BACTERIAL INFECTIONS” (priority 2022, published 2026)
